Experimental data from patent publication US20210379033A1, “METHODS OF TREATING CANCER WITH ARYL HYDROCARBON RECEPTOR ANTAGONISTS” (Magenta Therapeutics Inc., priority 2018, published 2021).
Like-named read-outs stand apart in the source and are kept apart here.

What was measured:
[1] = target: T1, aryl hydrocarbon receptor (Homo sapiens, UniProt P35869); experiment: Aryl hydrocarbon receptor-driven luciferase reporter in transiently transfected HepG2 cells (Example 3); assay type: cell-based; details: absence (FIG. 1) or presence (FIG. 2) of agonist VAF347 (80 nM), luciferase six hours after plating
T1 construct: HepG2 cells transiently transfected with the pGudLuc8.1 plasmid were thawed and 25,000 cells were plated per well; endogenous in cells; host or cells: HepG2
T1 sequence (P35869 11-848): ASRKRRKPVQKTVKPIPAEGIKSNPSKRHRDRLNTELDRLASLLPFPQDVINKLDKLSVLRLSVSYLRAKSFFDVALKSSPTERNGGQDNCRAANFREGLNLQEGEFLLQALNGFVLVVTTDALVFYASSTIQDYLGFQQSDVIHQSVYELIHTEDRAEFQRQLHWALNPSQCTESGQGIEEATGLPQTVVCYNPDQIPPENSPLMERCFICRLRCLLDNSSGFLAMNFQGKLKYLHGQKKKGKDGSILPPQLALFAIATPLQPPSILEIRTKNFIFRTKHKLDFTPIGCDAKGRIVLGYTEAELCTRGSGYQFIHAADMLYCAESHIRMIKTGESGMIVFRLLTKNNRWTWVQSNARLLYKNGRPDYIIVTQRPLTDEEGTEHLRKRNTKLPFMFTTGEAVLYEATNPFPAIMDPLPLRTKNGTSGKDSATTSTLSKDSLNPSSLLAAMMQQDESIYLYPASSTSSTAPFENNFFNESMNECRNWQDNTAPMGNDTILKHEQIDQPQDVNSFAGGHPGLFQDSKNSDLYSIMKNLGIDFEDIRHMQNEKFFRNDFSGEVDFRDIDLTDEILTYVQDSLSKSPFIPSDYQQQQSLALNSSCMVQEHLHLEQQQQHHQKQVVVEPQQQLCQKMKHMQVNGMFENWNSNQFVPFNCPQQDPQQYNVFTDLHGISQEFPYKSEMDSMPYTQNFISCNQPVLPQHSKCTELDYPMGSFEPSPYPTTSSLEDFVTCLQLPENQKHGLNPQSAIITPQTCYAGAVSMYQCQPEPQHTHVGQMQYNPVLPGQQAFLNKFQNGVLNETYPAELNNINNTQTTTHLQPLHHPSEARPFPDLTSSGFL
Experimental: Experimental details for this experiment are reported in Example 3, below.
To determine the ability of compounds (5) and (16) to inhibit the activity of the aryl hydrocarbon receptor and to induce the proliferation of hematopoietic stem cells, a series of HSC expansion experiments were conducted. In the first experiment, compounds (5) and (16) were assessed for their capacity to attenuate aryl hydrocarbon receptor signaling. To this end, HepG2 hepatocytes were transiently transfected with a luciferase reporter construct under the control of a promoter responsive to aryl hydrocarbon receptor signal transduction. The cells were plated at a density of 25,000 cells per well in a microtiter plate. The HepG2 cells were immediately treated with compound (5) or (16) in the absence (FIG. 1) or presence (FIG. 2) of the aryl hydrocarbon receptor agonist, VAF347 (80 nM). Luciferase activity was subsequently analyzed six hours after plating.

[2] = target: T2, aryl hydrocarbon receptor (AHR) (Homo sapiens, UniProt P35869); experiment: AHR antagonist assay: luciferase reporter in HepG2 cells transiently transfected with pGudLuc8.1; assay type: cell-based; details: HepG2 cells, 25,000 cells per well, luciferase activity 24 hours post-culture
T2 construct: HepG2 cells transiently transfected with the pGudLuc8.1 plasmid were thawed and 25,000 cells were plated per well; endogenous in cells; host or cells: HepG2
T2 sequence (P35869 11-848): T1 sequence (P35869 11-848)
Experimental: To determine the activity of a scale-up batch of Compound (24), individual enantiomers, and two derivatives Compound (27) and Compound (28) were evaluated for AHR antagonist activity. The compounds were compared to control AHR antagonist SR1, an additional control AHR antagonist, and stored sample of Compound (24)
Methods—HepG2 cells transiently transfected with the pGudLuc8.1 plasmid were thawed and 25,000 cells were plated per well and immediately treated the AHR agonist VAF347 (fixed at 40 nM) and/or the indicated AHR antagonists. Luciferase activity was measured 24 hours post-culture, corresponding to endogenous AHR antagonist activity (without VAF347, FIG. 8) or in the presence of VAF347 (FIG. 9). All synthesized compounds show equivalent AHR antagonist activity if not greater than SR1.

Row | EC50 ([2]; AHR agonist VAF347 fixed at 40 nM, read-out: AHR Antagonist Activity in the Presence of VAF347 EC50) [nM] | EC50 ([2]; without VAF347, read-out: Endogenous AHR Antagonist Activity EC50) [nM] | Compound | suppression of aryl hydrocarbon receptor activity (luciferase) [1]
1 | – | – | CCC(C)c1cnc2c(NCCc3c[nH]c4ccccc34)nc(-c3cncc(F)c3)cn12 (stereo not shown) [Compound (16)] | capable of suppressing aryl hydrocarbon receptor activity even in the presence of the activator VAF347
2 | – | – | CCC(C)c1cnc2c(NCCc3c[nH]c4ccccc34)cc(-c3cncc(F)c3)cn12 (stereo not shown) [Compound (5)] | capable of suppressing aryl hydrocarbon receptor activity even in the presence of the activator VAF347
3 | 193 | 33 | CC(C)n1cnc2c(NCCc3ccc(O)cc3)nc(-c3csc4ccccc34)nc21 [SR1] | –
